According to patent US10472356B2, “Bicyclic ketone sulfonamide compounds” (AMGEN INC., priority 2015, dated 2019):

molecular target: T1, human Nav1.7 (Homo sapiens, UniProt Q15858); assay: Nav 1.7 IWB In Vitro Assay (IonWorks Barracuda); type: cell-based; conditions: HEK293 cells stably transfected with human Nav 1.7; IonWorks Barracuda population patch-clamp; cells clamped to −20 mV for 4 minutes with compound; 26th pulse; read-out: hNav1.7 IWB IC50
T1 construct: expressed in transfected cells; host or cells: HEK293
Protocol: Nav 1.7 IWB In Vitro Assay
HEK293 cells stably transfected with human Nav 1.7 were recorded in population patch-clamp mode with the IonWorks© Barracuda (IWB) automated electrophysiology system (Molecular Devices, LLC, Sunnyvale, Calif.). From a holding potential of −110 mV, sodium currents were elicited by a train of 26 depolarizations of 150 ms duration to −20 mV at a frequency of 5 Hz. Cells were then clamped to −20 mV for a period of 4 minutes in the presence of a single concentration of test compound. Following this compound incubation period, cells were clamped to −110 mV for three seconds to recover unbound channels and put through the same 26 pulse voltage protocol as above. Peak inward current during the 26th pulse to −20 mV in the presence of compound was divided by the peak inward current evoked by the 26th pulse to −20 mV in the absence of compound to determine percent inhibition. Concentration-response curves of percent inhibition as a function of concentration were generated to calculate IC50 values.

T1 sequence (Q15858 whole entry): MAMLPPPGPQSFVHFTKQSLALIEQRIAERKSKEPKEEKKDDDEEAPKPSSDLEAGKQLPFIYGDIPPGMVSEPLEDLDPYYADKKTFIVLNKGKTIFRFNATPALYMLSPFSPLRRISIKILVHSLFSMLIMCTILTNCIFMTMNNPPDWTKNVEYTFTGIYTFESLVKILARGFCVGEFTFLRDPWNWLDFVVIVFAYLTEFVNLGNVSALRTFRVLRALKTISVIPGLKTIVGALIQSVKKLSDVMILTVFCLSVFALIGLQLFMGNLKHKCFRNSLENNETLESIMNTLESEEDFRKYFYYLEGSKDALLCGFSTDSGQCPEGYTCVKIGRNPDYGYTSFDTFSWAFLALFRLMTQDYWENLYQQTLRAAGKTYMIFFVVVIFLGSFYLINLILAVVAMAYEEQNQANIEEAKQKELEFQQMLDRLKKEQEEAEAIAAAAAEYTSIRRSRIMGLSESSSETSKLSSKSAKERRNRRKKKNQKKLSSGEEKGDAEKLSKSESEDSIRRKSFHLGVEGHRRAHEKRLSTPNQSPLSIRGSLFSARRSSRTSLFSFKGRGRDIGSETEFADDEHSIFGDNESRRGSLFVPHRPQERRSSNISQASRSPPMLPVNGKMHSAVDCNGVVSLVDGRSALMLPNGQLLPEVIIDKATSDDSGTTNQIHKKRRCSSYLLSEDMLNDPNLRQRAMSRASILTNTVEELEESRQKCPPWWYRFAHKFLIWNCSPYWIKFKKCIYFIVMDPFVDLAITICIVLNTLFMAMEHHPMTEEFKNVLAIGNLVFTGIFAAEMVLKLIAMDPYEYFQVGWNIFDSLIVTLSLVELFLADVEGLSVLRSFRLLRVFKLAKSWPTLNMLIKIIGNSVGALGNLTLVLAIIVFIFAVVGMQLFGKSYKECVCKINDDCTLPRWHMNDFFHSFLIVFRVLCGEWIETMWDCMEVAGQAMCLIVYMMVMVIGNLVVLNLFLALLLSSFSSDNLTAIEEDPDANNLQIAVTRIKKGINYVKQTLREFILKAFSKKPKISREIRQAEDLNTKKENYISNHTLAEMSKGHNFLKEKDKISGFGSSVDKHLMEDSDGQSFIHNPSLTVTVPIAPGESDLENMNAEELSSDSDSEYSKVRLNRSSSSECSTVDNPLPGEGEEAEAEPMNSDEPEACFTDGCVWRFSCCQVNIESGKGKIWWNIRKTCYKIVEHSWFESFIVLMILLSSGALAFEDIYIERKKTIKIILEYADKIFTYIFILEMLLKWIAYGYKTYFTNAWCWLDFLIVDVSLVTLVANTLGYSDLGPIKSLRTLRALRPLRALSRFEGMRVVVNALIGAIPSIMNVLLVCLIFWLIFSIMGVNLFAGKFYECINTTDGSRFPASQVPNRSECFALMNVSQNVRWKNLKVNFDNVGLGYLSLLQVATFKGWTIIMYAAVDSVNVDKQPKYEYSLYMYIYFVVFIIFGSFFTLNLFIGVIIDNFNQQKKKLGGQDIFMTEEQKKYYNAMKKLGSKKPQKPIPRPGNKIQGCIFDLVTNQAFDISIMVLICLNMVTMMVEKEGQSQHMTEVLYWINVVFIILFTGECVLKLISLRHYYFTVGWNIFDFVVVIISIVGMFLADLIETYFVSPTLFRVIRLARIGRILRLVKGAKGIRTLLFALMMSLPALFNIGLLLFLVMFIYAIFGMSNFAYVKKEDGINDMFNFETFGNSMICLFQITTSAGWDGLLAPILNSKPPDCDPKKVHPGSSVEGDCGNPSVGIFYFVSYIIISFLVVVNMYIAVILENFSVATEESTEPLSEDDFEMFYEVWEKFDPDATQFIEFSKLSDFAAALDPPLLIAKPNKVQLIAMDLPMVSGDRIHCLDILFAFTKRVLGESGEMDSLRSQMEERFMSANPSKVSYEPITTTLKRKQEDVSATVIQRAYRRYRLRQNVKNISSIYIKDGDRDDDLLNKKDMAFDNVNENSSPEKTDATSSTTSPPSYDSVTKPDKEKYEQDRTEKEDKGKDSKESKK

SMILES	IC50 [nM]
COc1cc(-c2ccc(Cl)c(C)c2)c(F)cc1-n1c2c(ccc1=O)CN(S(=O)(=O)Nc1ccon1)CC2 (single isomer, unassigned) [Example 24-M, M-1-(4′-chloro-2-fluoro-5-methoxy-3′-methyl-4-biphenylyl)-N-3-isoxazolyl-2-oxo-1,5,7,8-tetrahydro-1,6-naphthyridine-6(2H)-sulfonamide]	462
COc1cc(-c2ccc(Cl)c(C)c2)c(F)cc1-n1c2c(ccc1=O)CN(S(=O)(=O)Nc1cccnn1)CC2 (single isomer, unassigned) [Example 33-M, M-1-(4′-chloro-2-fluoro-5-methoxy-3′-methyl-4-biphenylyl)-2-oxo-N-3-pyridazinyl-1,5,7,8-tetrahydro-1,6-naphthyridine-6(2H)-sulfonamide]	> 10000
COc1cc(C#CC2CCCC2)c(F)cc1-n1c2c(ccc1=O)CN(S(=O)(=O)Nc1ccon1)CC2 (single isomer, unassigned) [Example 34-M, M-1-(4-(cyclopentylethynyl)-5-fluoro-2-methoxyphenyl)-N-3-isoxazolyl-2-oxo-1,5,7,8-tetrahydro-1,6-naphthyridine-6(2H)-sulfonamide]	9720

Second part, the compound after the results:

IC50 [nM]	SMILES
1480	COc1cc(-c2cc(OC)c(-n3c4c(ccc3=O)CN(S(=O)(=O)Nc3ccon3)CC4)cc2F)ccc1C (single isomer, unassigned) [Example 58-M, M-1-(2-fluoro-3′,5-dimethoxy-4′-methyl-4-biphenylyl)-N-3-isoxazolyl-2-oxo-1,5,7,8-tetrahydro-1,6-naphthyridine-6(2H)-sulfonamide]
856	COc1cc(CCC(F)(F)F)c(Cl)cc1-n1c2c(ccc1=O)CN(S(=O)(=O)Nc1cccnn1)CC2 (single isomer, unassigned) [Example 96-M, M-1-(5-chloro-2-methoxy-4-(3,3,3-trifluoropropyl)phenyl)-2-oxo-N-(pyridazin-3-yl)-1,2,7,8-tetrahydro-1,6-naphthyridine-6(5H)-sulfonamide]
> 25000	COc1cc(Br)c(Cl)cc1-n1c2c(ccc1=O)CN(S(=O)(=O)Nc1ccon1)CC2 (single isomer, unassigned) [Preparation 8c-M, M-1-(4-bromo-5-chloro-2-methoxyphenyl)-N-3-isoxazolyl-2-oxo-1,5,7,8-tetrahydro-1,6-naphthyridine-6(2H)-sulfonamide]
768	COc1cc(Br)c(Cl)cc1-n1c2c(ccc1=O)CN(S(=O)(=O)Nc1ccon1)CC2 (single isomer, unassigned) [Preparation 8c-P, P-1-(4-bromo-5-chloro-2-methoxyphenyl)-N-3-isoxazolyl-2-oxo-1,5,7,8-tetrahydro-1,6-naphthyridine-6(2H)-sulfonamide]
> 25000	COc1cc(Br)c(F)cc1-n1c2c(ccc1=O)CN(S(=O)(=O)Nc1ccncn1)CC2 (single isomer, unassigned) [Preparation 8f-M, M-1-(4-bromo-5-fluoro-2-methoxyphenyl)-2-oxo-N-(pyrimidin-4-yl)-1,2,7,8-tetrahydro-1,6-naphthyridine-6(5H)-sulfonamide]
193	COc1cc(Br)c(F)cc1-n1c2c(ccc1=O)CN(S(=O)(=O)Nc1ccncn1)CC2 (single isomer, unassigned) [Preparation 8f-P, P-1-(4-bromo-5-fluoro-2-methoxyphenyl)-2-oxo-N-(pyrimidin-4-yl)-1,2,7,8-tetrahydro-1,6-naphthyridine-6(5H)-sulfonamide]

molecular target: T1, human Nav1.7; assay: Nav 1.7 In Vitro PatchXpress (PX) Assay; type: cell-based; conditions: HEK 293 cells stably transfected with human Nav1.7; PatchXpress whole cell voltage clamp; partially inactivated state (holding potential yielding 20 to 50% inactivation); read-out: hNav1.7 PX IC50
Protocol: Nav 1.7 In Vitro PatchXpress (PX) Assay
HEK 293 cells stably transfected with human Nav1.7 were recorded in whole cell voltage clamp mode with the PatchXpress automated electrophysiology system (Molecular Devices, LLC, Sunnyvale, Calif.). Compound effects were measured on a partially inactivated state of the sodium channel. Cells were clamped to a holding potential yielding 20 to 50% inactivation. To elicit sodium current, channels were activated by pulsing to −10 mV for 20 msec. This voltage protocol was repeated at a rate of 0.1 Hz throughout the experiment. A single concentration of test compound was applied to cells for a duration of 3 minutes. Peak sodium current was measured at the end of the compound addition period to determine percent inhibition. Three to five cells were tested per concentration, and IC50 curves were fitted to percent inhibition as a function of concentration.

SMILES	IC50 [nM]
COc1cc(-c2ccc(F)c(C)c2)c(F)cc1-n1c2c(ccc1=O)CN(S(=O)(=O)Nc1ccon1)CC2 (racemic) [Example 22-(Rac), (Rac)-1-(2,4′-difluoro-5-methoxy-3′-methyl-4-biphenylyl)-N-3-isoxazolyl-2-oxo-1,5,7,8-tetrahydro-1,6-naphthyridine-6(2H)-sulfonamide]	255
COc1cc(-c2cc(F)cc(F)c2)c(F)cc1-n1c2c(ccc1=O)CN(S(=O)(=O)Nc1ccon1)CC2 (racemic) [Example 25-(Rac), (Rac)-N-3-isoxazolyl-2-oxo-1-(2,3′,5′-trifluoro-5-methoxy-4-biphenylyl)-1,5,7,8-tetrahydro-1,6-naphthyridine-6(2H)-sulfonamide]	209
COc1cc(C(F)(F)F)ccc1-n1c2c(ccc1=O)CN(S(=O)(=O)Nc1ccon1)CC2 (racemic) [Example 26-(Rac), (Rac)-N-3-isoxazolyl-1-(2-methoxy-4-(trifluoromethyl)phenyl)-2-oxo-1,5,7,8-tetrahydro-1,6-naphthyridine-6(2H)-sulfonamide]	> 1000
COc1ccccc1-n1c2c(ccc1=O)CN(S(=O)(=O)Nc1ccon1)CC2 (racemic) [Example 27, (Rac)-N-3-isoxazolyl-1-(2-methoxyphenyl)-2-oxo-1,5,7,8-tetrahydro-1,6-naphthyridine-6(2H)-sulfonamide]	> 1000
COc1cc(-c2cc(F)cc(Cl)c2)c(F)cc1-n1c2c(ccc1=O)CN(S(=O)(=O)Nc1ccc(F)cn1)CC2 (single isomer, unassigned) [Example 12-M, M-1-(3′-chloro-2,5′-difluoro-5-methoxy-4-biphenylyl)-N-(5-fluoro-2-pyridinyl)-2-oxo-1,5,7,8-tetrahydro-1,6-naphthyridine-6(2H)-sulfonamide]	9340
COc1cc(-c2cc(F)cc(F)c2)c(F)cc1-n1c2c(ccc1=O)CN(S(=O)(=O)Nc1ncon1)CC2 (single isomer, unassigned) [Example 17-P, P-N-1,2,4-oxadiazol-3-yl-2-oxo-1-(2,3′,5′-trifluoro-5-methoxy-4-biphenylyl)-1,5,7,8-tetrahydro-1,6-naphthyridine-6(2H)-sulfonamide]	> 1000
COc1cc(-c2cc(F)cc(F)c2)c(F)cc1-n1c2c(ccc1=O)CN(S(=O)(=O)Nc1ccon1)CC2 (single isomer, unassigned) [Example 25-M, M-N-3-isoxazolyl-2-oxo-1-(2,3′,5′-trifluoro-5-methoxy-4-biphenylyl)-1,5,7,8-tetrahydro-1,6-naphthyridine-6(2H)-sulfonamide]	> 1000
COc1cc(C(F)(F)F)ccc1-n1c2c(ccc1=O)CN(S(=O)(=O)Nc1ccon1)CC2 (single isomer, unassigned) [Example 26-M, M-N-3-isoxazolyl-1-(2-methoxy-4-(trifluoromethyl)phenyl)-2-oxo-1,5,7,8-tetrahydro-1,6-naphthyridine-6(2H)-sulfonamide]	> 1000
COc1cc(C(F)(F)F)ccc1-n1c2c(ccc1=O)CN(S(=O)(=O)Nc1ccon1)CC2 (single isomer, unassigned) [Example 26-P, P-N-3-isoxazolyl-1-(2-methoxy-4-(trifluoromethyl)phenyl)-2-oxo-1,5,7,8-tetrahydro-1,6-naphthyridine-6(2H)-sulfonamide]	> 1000
COc1cc(-c2ccc(Cl)c(C)c2)c(F)cc1-n1c2c(ccc1=O)CN(S(=O)(=O)Nc1ccncn1)CC2 [Example 1-P, P-1-(4′-chloro-2-fluoro-5-methoxy-3′-methyl-4-biphenylyl)-2-oxo-N-4-pyrimidinyl-1,5,7,8-tetrahydro-1,6-naphthyridine-6(2H)-sulfonamide]	29.6
COc1cc(-c2ccc(C)c(Cl)c2)c(F)cc1-n1c2c(ccc1=O)CN(S(=O)(=O)Nc1cccnn1)CC2 [Example 44, P-1-(3′-chloro-2-fluoro-5-methoxy-4′-methyl-4-biphenylyl)-2-oxo-N-3-pyridazinyl-1,5,7,8-tetrahydro-1,6-naphthyridine-6(2H)-sulfonamide]	73.2
COc1cc(-c2cccc(C(F)(F)F)c2)c(F)cc1-n1c2c(ccc1=O)CN(S(=O)(=O)Nc1cccnn1)CC2 [Example 45, P-1-(2-fluoro-5-methoxy-3′-(trifluoromethyl)-4-biphenylyl)-2-oxo-N-3-pyridazinyl-1,5,7,8-tetrahydro-1,6-naphthyridine-6(2H)-sulfonamide]	29.8

More lines, now with the values ahead:

IC50 [nM]	SMILES
> 1000	COc1ccc(-c2ccc(C)c(Cl)c2)cc1-n1c2c(ccc1=O)CN(S(=O)(=O)Nc1cccnn1)CC2 (single isomer, unassigned) [Example 55-M, M-1-(3′-chloro-4-methoxy-4′-methyl-3-biphenylyl)-2-oxo-N-3-pyridazinyl-1,5,7,8-tetrahydro-1,6-naphthyridine-6(2H)-sulfonamide]
710	COc1ccc(-c2ccc(C)c(Cl)c2)cc1-n1c2c(ccc1=O)CN(S(=O)(=O)Nc1cccnn1)CC2 (single isomer, unassigned) [Example 55-P, P-1-(3′-chloro-4-methoxy-4′-methyl-3-biphenylyl)-2-oxo-N-3-pyridazinyl-1,5,7,8-tetrahydro-1,6-naphthyridine-6(2H)-sulfonamide]
